Reference: patent publication US11085056B2, “Transfection complexes and methods of using the same” (MOLECULAR TRANSFER, INC., priority 2015, dated 2021)

Assays:
Jurkat Cells = test: Transfection of Jurkat cells with DOTMA/DOPE/peptide and eGFP plasmid, fluorescent plate reader; type: cell-based; conditions: DOTMA/DOPE 1:1 plus peptide with RRRRRRRRRRRR (SEQ ID NO: 109) at n terminus; EF1Alpha eGFP plasmid; 0.02 mL complex; 42 hours
Method in brief: (§1)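 Cells at 60-70% confluence got DOTMA/DOPE (1:1) mixed with peptides bearing an N-terminal R12 DNA-binding tag, complexed 10 min with EF1α-eGFP plasmid (5 μg/mL in OptiMEM); 0.01 or 0.02 mL complex per well. After 42 h at 37 °C, GFP read by fluorescence plate reader and % transfected cells by microscopy, relative to lipid without peptide.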

HeLa Cells [1] = test: Transfection of HeLa cells with DOTMA/DOPE/peptide and eGFP plasmid, fluorescent plate reader; type: cell-based; conditions: DOTMA/DOPE 1:1 plus peptide with RRRRRRRRRRRR (SEQ ID NO: 109) at n terminus; EF1Alpha eGFP plasmid; 0.01 mL complex; 42 hours
Method in brief: as §1

HeLa Cells [2] = test: Transfection of HeLa cells with DOTMA/SEQ ID NO: 72/peptide compared with Lipofectamine 2000; type: cell-based; conditions: fusogenic peptide 0.1 mg/mL
Method in brief: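 HeLa cells at 60–70% confluence received 0.01 mL of complexes of EF1Alpha eGFP plasmid (5 μg/mL in OptiMEM) with DOTMA/DOPE (1:1) plus R12-linked peptide, with fusogenic peptide at 0.1 mg/mL final. GFP read by fluorescence plate reader and microscopy (% cells transfected) after 42 h at 37 °C.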

C2C12 Cells = test: Transfection of C2C12 cells with DOTMA/DOPE/peptide and eGFP plasmid, fluorescent plate reader; type: cell-based, mouse; conditions: DOTMA/DOPE 1:1 plus peptide with RRRRRRRRRRRR (SEQ ID NO: 109) at n terminus; EF1Alpha eGFP plasmid; 0.02 mL complex; 42 hours
Method in brief: as §1

some examined cell types = test: Transfection expression and % cells transfected over the no peptide control; type: cell-based; conditions: on some examined cell types
Method in brief: as §1

HuVec Cells = test: Transfection of HuVec cells with DOTMA/DOPE/peptide and eGFP plasmid, fluorescent plate reader; type: cell-based; conditions: DOTMA/DOPE 1:1 plus peptide with RRRRRRRRRRRR (SEQ ID NO: 109) at n terminus; EF1Alpha eGFP plasmid; 0.01 mL complex; 42 hours
Method in brief: as §1

NL-1 iPS Cells = test: Transfection of NL-1 iPS cells with DOTMA/DOPE/peptide and eGFP plasmid, fluorescent plate reader; type: cell-based; conditions: DOTMA/DOPE 1:1 plus peptide with RRRRRRRRRRRR (SEQ ID NO: 109) at n terminus; EF1Alpha eGFP plasmid; 42 hours
Human Fibroblast Cells = test: Transfection of human fibroblast cells with DOTMA/DOPE/peptide and eGFP plasmid, fluorescent plate reader; type: cell-based; conditions: DOTMA/DOPE 1:1 plus peptide with RRRRRRRRRRRR (SEQ ID NO: 109) at n terminus; EF1Alpha eGFP plasmid; 0.01 mL complex; 42 hours
Method in brief: as §1

[3] = 0.1 μL of DOTMA/SEQ ID NO: 72/Peptide in well of a 96 well plate
[4] = 0.2 μL of DOTMA/SEQ ID NO: 72/Peptide in well of a 96 well plate
[5] = 0.3 μL of DOTMA/SEQ ID NO: 72/Peptide in well of a 96 well plate
[6] = 0.4 μL of DOTMA/SEQ ID NO: 72/Peptide in well of a 96 well plate

Row | Substance | RF (Relative Fluorescence) of Transfection of Jurkat Cells (Jurkat Cells) | RF (Relative Fluorescence) of Transfection of HeLa Cells (HeLa Cells [1]) | RF (Relative Fluorescence), DOTMA/SEQ ID NO: 72/Peptide, HeLa Cells (HeLa Cells [2]; [3]) | RF (Relative Fluorescence), DOTMA/SEQ ID NO: 72/Peptide, HeLa Cells (HeLa Cells [2]; [4]) | RF (Relative Fluorescence), DOTMA/SEQ ID NO: 72/Peptide, HeLa Cells (HeLa Cells [2]; [5]) | RF (Relative Fluorescence), DOTMA/SEQ ID NO: 72/Peptide, HeLa Cells (HeLa Cells [2]; [6]) | RF (Relative Fluorescence) of Transfection of C2C12 Cells (C2C12 Cells) | transfection expression and the % cells transfected over the no peptide control (some examined cell types) | RF (Relative Fluorescence) of Transfection of HuVec Cells (HuVec Cells) | RF (Relative Fluorescence) of Transfection of NL-1 iPS Cells (NL-1 iPS Cells) | RF (Relative Fluorescence) of Transfection of Human Fibroblast Cells (Human Fibroblast Cells)
1 | 219 (RKRLQVQLSIRT; Peptidic transfection agent) [compound 219] | 10762 | 13721 | 12135 | 13841 | 13531 | 11712 | 1346 | increased | 6237 | 5770 | 7389
2 | 237 (KNSFMALYLSKG; Peptidic transfection agent) [compound 237] | 1501 | 21288 | 8986 | 9753 | 8015 | 8288 | 6491 | increased | 2302 | 8632 | 2184
3 | 503 (TAGSCLRKFSTMRRRRRRRRRRRR; Peptidic transfection agent) [compound 503] | 9411 | 25368 | 12827 | 20006 | 17101 | 16206 | 3973 | increased | 12123 | 19014 | 13085
4 | 367 (TDIPPCPHGWISLWK; Peptidic transfection agent) [compound 367] | 4365 | 39008 | 10427 | 21411 | 23001 | 17529 | 16207 | increased | 13354 | 17545 | 10036
5 | 348 (HQQDLGTAGSCLRKFSTM; Peptidic transfection agent) [compound 348] | 15585 | 22289 | 17413 | 18615 | 16164 | 15054 | 8625 | increased | 21214 | 21645 | 11802
6 | 336 (GEFYFDLRLKGDK; Peptidic transfection agent) [compound 336] | 4813 | 25262 | 14442 | 16702 | 13434 | 11334 | 9647 | increased | 5366 | 14875 | 10449
7 | 351 (LNRQELFPFG; Peptidic transfection agent) [compound 351] | 9730 | 12279 | 7678 | 11499 | 10575 | 8791 | 3530 | increased | 15379 | 24646 | 8061
8 | 355 (FRHRNRKGY; Peptidic transfection agent) [compound 355] | 8132 | 32628 | 18362 | 27990 | 22367 | 18289 | 1900 | increased | 14810 | 7910 | 6821
